Several values for one entry are separate records, joined by “and”; a condition that tells them apart may be missing. Identical values can stand only once. Entries after “also recorded” stand apart in the source; their conditions may differ. Like-named read-outs stand apart in the source and are kept apart here.
Columns and labels:
HT29 cells [1] = conditions: read-out: GI50 (potency), cited from earlier work
HCT116 cells [2] = conditions: read-out: GI50 (potency), cited from earlier work
[3] = Pharmacokinetic study, plasma and tumour concentrations, HCT116 xenograft-bearing mice; type: in vivo
Experimental: (§1) Animal studies were all carried out using female athymic CD1 nude mice (Charles River, Kent, UK), implanted with HCT116 or HT29 xenografts (1 × 10^7 cells in 50 µl media injected subcutaneously into the right flank), maintained and handled in isolators under specific pathogen-free conditions.
(§2) Mice bearing HCT116 or HT29 human tumour xenografts were treated with 1 or 5 mg/kg WX-554, or 20 or 100 mg/kg WX-037, alone or in combination, and were bled by cardiac puncture under terminal anaesthesia at 6 or 24 h post-treatment (3 mice/time point). Blood was collected into heparinized tubes, and plasma was separated and stored at −20 °C until analysed. Tumours were removed, snap frozen in liquid nitrogen and stored at −80 °C prior to PK analyses. Samples were extracted with solid phase extraction (SPE) and analysed with high-performance liquid chromatography (HPLC) coupled with tandem mass spectrometry (MS/MS) by Wilex (Munich, Germany). The quantification limit for WX-554 was 1 ng/mL and within and between day variation was <15%. WinNonlin Software Version 4.0.1 (Pharsight Corporation, Peypin, France) was used for PK/PD modelling and non-compartmental analysis. Paired t tests were used to compare the different treatment groups, and differences with a p value ≤0.05 were considered statistically significant.

[4] = test system: phosphorylation of ERK1/2, AKT, S6 and 4EBP1 in HCT116 cells; experiment: Western blotting of PI3K/AKT and MAPK signal transduction, HCT116; type: cell-based, human; conditions: HCT116, 24 h, 1x or 10x GI50, Western blot
Experimental: (§3) Western blots were prepared, probed with phospho-4EBP1 (Thr37/46) (#2855), phospho-p44/42 MAPK (Thr202/Tyr204) (#4370), phospho-AKT (Ser473) (#4060) or phospho-S6 ribosomal protein (Ser235/236) (#4858) monoclonal antibodies obtained from Cell Signalling Technology (New England BioLabs (UK) Ltd, Hertfordshire, UK) and developed as described previously. Blots were then stripped (100 mM 2-mercaptoethanol, 2% (w/v) SDS and 62.5 mM Tris pH6.8 at 55 °C for 30 min) and re-probed with the respective total monoclonal antibody (4EBP1 (53H11) (#9644), p44/42 MAPK (ERK1/2) (#4695), AKT (pan) (C67E7) (#4691) or S6 ribosomal protein (5g10) (#2217)) obtained from Cell Signalling Technology (New England BioLabs (UK) Ltd, Hertfordshire, UK) and developed as described above.

MEK2 = conditions: stated in Introduction, method and reference not given; read-out: half maximal inhibitory concentration (IC50), MEK2; cited from earlier work
[5] = Pharmacokinetic study, plasma and tumour concentrations, HT29 xenograft-bearing mice; type: in vivo
Experimental: as §1, §2

[6] = set-up: method as in earlier work; conditions: dose escalation study in healthy volunteers; cited from earlier work
HT29 cells [7] = experiment: Clonogenic cytotoxicity assay, HT29
From the text: (§6) HCT116 and HT29 human colorectal cancer cells were obtained from the ATCC (American Type Culture Collection).
(§7) After growth for 10–14 days, colonies were fixed in methanol–acetic acid 3:1 (v/v) and stained with crystal violet (0.4% w/v). Colonies consisting of more than 50 cells were counted on an automated colony counter (Oxford Optronix, Oxford, UK). Two-tailed paired t tests were used to compare the different groups. Differences with a p < 0.05 were considered statistically significant.

[8] = set-up: method as in PMID 23587417, PMID 24434059; conditions: recent Phase I study; cited from earlier work
HCT116 cells [9] = experiment: Sulforhodamine B (SRB) growth inhibition assay with median effect analysis, HCT116; type: cell-based, human; conditions: HCT116, single agent
Experimental: (§4) Growth was then measured using the Sulforhodamine B (SRB) method and analysed as described previously. The GI50 concentration was calculated based on a standard point to point curve with 1000 segments using GraphPad Prism software (California, USA). The data were analysed by median effect analysis using CalcuSyn software (Biosoft, Cambridgeshire, UK), which calculates the combination index of multiple drugs by an algebraic estimation algorithm.

[10] = Tolerability (body weight) in the HCT116 xenograft efficacy study; type: in vivo; conditions: HCT116 xenograft mice, 2 mg/kg WX-554 and/or 50 mg/kg WX-037 p.o. once daily for 14 days
Experimental: (§5) Mice bearing HCT116 human tumour xenografts were randomized into treatment groups and then treated by oral gavage with either the vehicle (10 ml/kg), 2 mg/kg WX-554, 50 mg/kg WX-037 or the combination of 2 mg/kg WX-554 and 50 mg/kg WX-037 once daily for 14 days. Tumour volume was monitored by calliper measurement using the equation a ^2 × b/2, where a is the smallest measurement and b the largest. Data are presented as median relative tumour volumes (RTV), where the tumour volume in each mouse on the initial day of treatment (day 0) is assigned an RTV value of 1. The time to RTV4 for each individual tumour was calculated based on a standard point to point curve with 1000 segments using GraphPad Prism software (CA, USA). Mann–Whitney U tests were used to compare the different groups, i.e., the control versus each treatment group, the single agents versus each other and each single agent versus their combination. Differences with a p value ≤0.05 were considered statistically significant.
Based on the results of the PK study, the efficacy of 50 mg/kg of the PI3K inhibitor WX-037 and 2 mg/kg of the MEK inhibitor WX-554 given orally, as single agents and in combination, was assessed in HCT116 human tumour xenograft-bearing mice (Fig. 5). […] In this study, mice were treated daily for 14 days and tumour volumes were measured three times a week.

MEK1 = conditions: stated in Introduction, method and reference not given; read-out: half maximal inhibitory concentration (IC50), MEK1; cited from earlier work
[11] = test system: phosphorylation of ERK1/2, AKT, S6 and 4EBP1 in HT29 cells; experiment: Western blotting of PI3K/AKT and MAPK signal transduction, HT29; type: cell-based, human; conditions: HT29, 24 h, 1x or 10x GI50, Western blot
Experimental: as §3

[12] = test system: HCT116 human tumour xenografts; experiment: Anti-tumour activity in HCT116 xenograft-bearing mice; type: in vivo; conditions: 2 mg/kg WX-554 and/or 50 mg/kg WX-037 p.o. once daily for 14 days
Experimental: as §1, §5

HT29 cells [13] = experiment: Sulforhodamine B (SRB) growth inhibition assay with median effect analysis, HT29; type: cell-based, human
Experimental: as §4

HCT116 cells [14] = experiment: Clonogenic cytotoxicity assay, HCT116
From the text: as §6, §7

[15] = 1 mg/kg WX-554 + 20 mg/kg WX-037, single p.o. dose
[16] = 1 mg/kg WX-554 + 100 mg/kg WX-037, single p.o. dose
[17] = 1 mg/kg WX-554 alone, single p.o. dose
[18] = 5 mg/kg WX-554 + 20 mg/kg WX-037, single p.o. dose
[19] = 5 mg/kg WX-554 + 100 mg/kg WX-037, single p.o. dose
[20] = 5 mg/kg WX-554 alone, single p.o. dose

O=C(NOC[C@H](O)CO)c1ccc(F)c(F)c1Nc1ccc(I)cc1F [PD 0325901]
GI50 (HT29 cells [1]; HT29, using the same assay): 0.0065 µM | GI50 (HCT116 cells [2]; HCT116, using the same assay): 0.021 µM

NCC1CN(C(=O)c2c(Nc3ccc(I)cc3F)sc3ncccc23)C1 [WX-554]
WX-554 Concentration ± SD, Plasma, 6 hours [3, 15]: 17 ± 9 ng/mL | WX-554 Concentration ± SD, Plasma, 24 hours [3, 15]: 6 ± 6 ng/mL | WX-554 Concentration ± SD, Tumour, 6 hours [3, 15]: 184 ± 62 ng/mL | WX-554 Concentration ± SD, Tumour, 24 hours [3, 15]: 141 ± 58 ng/mL | WX-554 Concentration ± SD, Plasma, 6 hours [3, 16]: 20 ± 10 ng/mL | WX-554 Concentration ± SD, Plasma, 24 hours [3, 16]: 10 ± 7 ng/mL | WX-554 Concentration ± SD, Tumour, 6 hours [3, 16]: 319 ± 139 ng/mL | WX-554 Concentration ± SD, Tumour, 24 hours [3, 16]: 464 ± 263 ng/mL | WX-554 Concentration ± SD, Plasma, 6 hours [3, 17]: 19 ± 5 ng/mL | WX-554 Concentration ± SD, Plasma, 24 hours [3, 17]: 2 ± 1 ng/mL | WX-554 Concentration ± SD, Tumour, 6 hours [3, 17]: 478 ± 97 ng/mL | WX-554 Concentration ± SD, Tumour, 24 hours [3, 17]: 309 ± 30 ng/mL | WX-554 Concentration ± SD, Plasma, 6 hours [3, 18]: 74 ± 27 ng/mL | WX-554 Concentration ± SD, Plasma, 24 hours [3, 18]: 28 ± 7 ng/mL | WX-554 Concentration ± SD, Tumour, 6 hours [3, 18]: 673 ± 453 ng/mL | WX-554 Concentration ± SD, Tumour, 24 hours [3, 18]: 1240 ± 282 ng/mL | WX-554 Concentration ± SD, Plasma, 6 hours [3, 19]: 98 ± 18 ng/mL | WX-554 Concentration ± SD, Plasma, 24 hours [3, 19]: 68 ± 19 ng/mL | WX-554 Concentration ± SD, Tumour, 6 hours [3, 19]: 804 ± 353 ng/mL | WX-554 Concentration ± SD, Tumour, 24 hours [3, 19]: 1583 ± 369 ng/mL | WX-554 Concentration ± SD, Plasma, 6 hours [3, 20]: 130 ± 37 ng/mL | WX-554 Concentration ± SD, Plasma, 24 hours [3, 20]: 11 ± 2 ng/mL | WX-554 Concentration ± SD, Tumour, 6 hours [3, 20]: 1724 ± 442 ng/mL | WX-554 Concentration ± SD, Tumour, 24 hours [3, 20]: 360 ± 223 ng/mL | reduction of ERK1/2 phosphorylation [4]: reduced ERK1/2 phosphorylation at 1 and 10 times the GI50 concentration | IC50 (MEK2): 0.011 µM | GI50 (HT29 cells [1]; HT29, unpublished Wilex studies): 0.0072 µM | WX-554 Concentration ± SD, Plasma, 6 hours [5, 15]: 101 ± 39 ng/mL | WX-554 Concentration ± SD, Plasma, 24 hours [5, 15]: 5 ± 3 ng/mL | WX-554 Concentration ± SD, Tumour, 6 hours [5, 15]: 1180 ± 597 ng/mL | WX-554 Concentration ± SD, Tumour, 24 hours [5, 15]: 447 ± 80 ng/mL | WX-554 Concentration ± SD, Plasma, 6 hours [5, 16]: 19 ± 14 ng/mL | WX-554 Concentration ± SD, Plasma, 24 hours [5, 16]: 13 ± 7 ng/mL | WX-554 Concentration ± SD, Tumour, 6 hours [5, 16]: 159 ± 102 ng/mL | WX-554 Concentration ± SD, Tumour, 24 hours [5, 16]: 407 ± 66 ng/mL | WX-554 Concentration ± SD, Plasma, 6 hours [5, 17]: 21 ± 1 ng/mL | WX-554 Concentration ± SD, Plasma, 24 hours [5, 17]: 3 ± 1 ng/mL | WX-554 Concentration ± SD, Tumour, 6 hours [5, 17]: 510 ± 40 ng/mL | WX-554 Concentration ± SD, Tumour, 24 hours [5, 17]: 419 ± 134 ng/mL | WX-554 Concentration ± SD, Plasma, 6 hours [5, 18]: 81 ± 26 ng/mL | WX-554 Concentration ± SD, Plasma, 24 hours [5, 18]: 52 ± 58 ng/mL | WX-554 Concentration ± SD, Tumour, 6 hours [5, 18]: 1143 ± 416 ng/mL | WX-554 Concentration ± SD, Tumour, 24 hours [5, 18]: 2493 ± 979 ng/mL | WX-554 Concentration ± SD, Plasma, 6 hours [5, 19]: 47 ± 33 ng/mL | WX-554 Concentration ± SD, Plasma, 24 hours [5, 19]: 49 ± 10 ng/mL | WX-554 Concentration ± SD, Tumour, 6 hours [5, 19]: 446 ± 239 ng/mL | WX-554 Concentration ± SD, Tumour, 24 hours [5, 19]: 2423 ± 584 ng/mL | WX-554 Concentration ± SD, Plasma, 6 hours [5, 20]: 118 ± 25 ng/mL | WX-554 Concentration ± SD, Plasma, 24 hours [5, 20]: 13 ± 3 ng/mL | WX-554 Concentration ± SD, Tumour, 6 hours [5, 20]: 2748 ± 378 ng/mL | WX-554 Concentration ± SD, Tumour, 24 hours [5, 20]: 1916 ± 207 ng/mL | safety and tolerability [6]: safe and tolerable | LC50 fold higher than the corresponding GI50 (HT29 cells [7]; HT29): ~372 fold | cell kill (cytotoxicity, cell death) (HT29 cells [7]; HT29, single agent 10 µM, 72 h, clonogenic assay): 75% | CC50 (HT29 cells [7]; read-out: mean lethal concentration (LC50), HT29, 72-h exposure, clonogenic assay): 1.6 µM | bioavailability [8]: very good bioavailability | GI50 (HCT116 cells [9]; 72-h exposure, SRB, read-out: GI50 (half maximal growth inhibitory concentration)): 0.038 µM | in vitro GI50 value (HCT116 cells [9]; determined in Supplementary Figure 1): 0.018 mg/L | tolerability / toxicity [10]: non-toxic | IC50 (MEK1): 0.0047 µM | reduction of ERK1/2 phosphorylation [11]: at 10 times the GI50 concentration in the HT29 cell line | GI50 (HCT116 cells [2]; HCT116, unpublished Wilex studies): 0.029 µM | tumour growth compared to vehicle-treated control tumours [12]: caused tumour growth delay; also recorded: induced tumour growth delay | fold difference in sensitivity, HT29 more sensitive than HCT116 (HT29 cells [13]; GI50 HCT116 versus GI50 HT29): 9 fold | GI50 (HT29 cells [13]; HT29, single agent, 72-h exposure, SRB, read-out: GI50 (half maximal growth inhibitory concentration)): 0.0043 µM and 0.004 µM | in vitro GI50 value (HT29 cells [13]; HT29, single agent, determined in Supplementary Figure 1): 0.002 mg/L | LC50 fold higher than the corresponding GI50 (HCT116 cells [14]; HCT116): approximately 16 fold | cell kill (cytotoxicity, cell death) (HCT116 cells [14]; HCT116, single agent 10 µM, 72 h, clonogenic assay): 67% | CC50 (HCT116 cells [14]; read-out: mean lethal concentration (LC50), HCT116, 72-h exposure, clonogenic assay): 0.6 µM

CS(=O)(=O)N1CCN(Cc2cc3nc(-c4cccc5[nH]ncc45)nc(N4CCOCC4)c3s2)CC1 [pictilisib, 2-(1H-Indazol-4-yl)-6-(4-methanesulfonyl-piperazin-1-ylmethyl)-4-morpholin-4-yl-thieno[3,2-d]pyrimidine]
GI50 (HT29 cells [1]; HT29, using the same assay): 0.157 µM | GI50 (HCT116 cells [2]; HCT116, using the same assay): 1.08 µM

Source: paper PMC5114336, “Enhanced anti-tumour activity of the combination of the novel MEK inhibitor WX-554 and the novel PI3K inhibitor WX-037” (Cancer Chemotherapy and Pharmacology, 2016)
